Data: patent US20170226123A1, “Phenylaminopyrimidine-Derived Compounds, Method for Obtaining, Using Said Compounds in the Treatment of Cancer, and Treatment Methods” (Fundacao Oswaldo Cruz, priority 2014, published 2017)
Entries after “also recorded” stand apart in the source; their conditions may differ.

What was measured:
[1] = system: K562-Lucena 1; conditions: MTT, 72 h; for viability reduction compared between K562 and Lucena lineages: FIG. 2A
Protocol: (§3) Cell viability was evaluated through the MTT method, after 72 hours of incubation with TKIs. MTT is a colorimetric method which measures mitochondrial dehydrogenase activity, based on the ability of living cells to reduce the salt, 3-(4,5-dimethylazole-2-yl)-2,5-diphenyltetrazolium bromide in the product formazan.
(§4) Cells were cultured in plates of 96 wells at the concentration of 1×10^4 cells/well in 200 μl of RPMI supplemented with 10% fetal bovine serum. 10 μl of each of the novel TKIs, or imatinib, previously diluted in RPMI medium, were added in different concentrations, and no molecule or imatinib was added in the control group. The plates were kept in a humid atmosphere containing 5% CO2 at 37° C. for 72 hours. Four hours before completion of the established time (72 hours), 20 μl of MTT (Sigma) (final concentration of 10 μg/ml) were added. The plates were kept in the oven for the remaining four hours. 180 μl of the supernatant were removed from each well, and then 150 μl of dimethylsulfoxide (DMSO; Sigma) were added, homogenizing thoroughly for complete dissolution of the salt crystals formed by mitochondrial metabolism, thus resulting in a coloration. […] The 96-well plate was read by the spectrophotometer (Spectramax Plus 384), using a wavelength of 570 nm. The results were analyzed through the absorbance of each well. The viability percentage was obtained through the following formula: [(Absorbance of cells treated with TKIs or imatinib/Absorbance of untreated cells)×100]. All the tests were performed in three different occasions. Three experiments, at least, independent, were carried out and triplicates were made for each concentration.
(§5) The compounds were tested for their cytotoxicity in this lineage.
(§6) The viability of the Lucena cell lineage was evaluated after 72 h of incubation with the novel compounds, through the MTT assay.

[2] = system: K562; assay: Cell cycle and DNA fragmentation analysis (propidium iodide, flow cytometry), K562; format: cell-based, human; conditions: K562, 24 h
Protocol: (§1) The analysis of the impact of the new compounds on the phases of the cell cycle and on the induction of DNA fragmentation were carried out by DNA labeling with the fluorochrome propidium iodide. The assays were analyzed by flow cytometry and the results were analyzed in relation to the control (cells without treatment).
(§2) The induction of DNA fragmentation by the new compounds and by imatinib was assessed by flow cytometry. The analysis of cell cycle and DNA fragmentation was carried out upon 24 hours of incubation with the compounds.

[3] = system: K562-Lucena 1; assay: cells; conditions: Homo sapiens, K562-Lucena 1, 72 h, read-out: reduction in the viability
Protocol: as §3, §4, §5, §6

[4] = system: CML; conditions: CML patients treated with imatinib (Hunter, 2007); cited from earlier work
[5] = system: K562; assay: MTT cell viability, K562 lineage; conditions: for Cell viability percentage: average of three independent experiments;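 as to all read-outs here: K562 cells (BCR-ABL expressing, CML derived), MTT formazan absorbance after 72 h exposure, compared with untreated control cells, at least three independent experiments run in triplicate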
Protocol: as §3
Cells were cultured in plates of 96 wells at the concentration of 1×10^4 cells/well in 200 μl of RPMI supplemented with 10% fetal bovine serum. 10 μl of each of the novel TKIs, or imatinib, previously diluted in RPMI medium, were added in different concentrations, and no molecule or imatinib was added in the control group. The plates were kept in a humid atmosphere containing 5% CO2 at 37° C. for 72 hours. Four hours before completion of the established time (72 hours), 20 μl of MTT (Sigma) (final concentration of 10 μg/ml) were added. The plates were kept in the oven for the remaining four hours. 180 μl of the supernatant were removed from each well, and then 150 μl of dimethylsulfoxide (DMSO; Sigma) were added, homogenizing thoroughly for complete dissolution of the salt crystals formed by mitochondrial metabolism, thus resulting in a coloration. […] The 96-well plate was read by the spectrophotometer (Spectramax Plus 384), using a wavelength of 570 nm. The results were analyzed through the absorbance of each well. The viability percentage was obtained through the following formula: [(Absorbance of cells treated with TKIs or imatinib/Absorbance of untreated cells)×100]. All the tests were performed in three different occasions. Three experiments, at least, independent, were carried out and triplicates were made for each concentration. By means of this method, we detected the cell inhibition percentage of each new molecule and we compared it with the percentage of viability reduction caused by imatinib.

[6] = system: K562-Lucena 1; assay: Annexin V/propidium iodide cell death assay by flow cytometry, K562-Lucena 1; conditions: for induction of cell death (annexin-positive and annexin/PI-positive cells): Lucena, 0.25-1.0 μM
Protocol: (§7) Cells were incubated for 24 hours with or without addition of the novel compounds. The index of apoptosis induced by the novel compounds was obtained as follows: percentage of cells in induced apoptosis (treated with the drugs) minus the percentage of cells in spontaneous apoptosis (not treated with the drugs) (Vasconcelos et aL, 2007; Vasconcelos et al., 2011).
(§8) To analyze the apoptosis induction potential by the new imatinib derivatives, annexin V/propidium iodide assay was used by flow cytometry.
(§9) To analyze death by apoptosis, the cells were incubated for 24 hours instead of 72 hours.
(§10) Cells without addition of any drug were used for the evaluation of spontaneous death. Cells incubated with DMSO (used to solubilize the compounds derived from imatinib) were used to discard the effect of this substance on cell death induction.

[7] = system: K562; assay: Annexin V/propidium iodide cell death assay by flow cytometry, K562; conditions: K562, 24 h, 0.25-1.0 μM
Protocol: as §7, §8, §9, §10

[8] = system: K562-Lucena 1; assay: Cell cycle and DNA fragmentation analysis (propidium iodide, flow cytometry), K562-Lucena 1; format: cell-based, human; conditions: 24 h
Protocol: as §1, §2

[9] = Homo sapiens, K562, 72 h, read-out: Cell viability percentage

| SMILES | increase in the number of cells in G0/G1 phase (halt in G0/G1) [2] | viability reduction compared between K562 and Lucena lineages [1] | induction of cell death (annexin-positive and annexin/PI-positive cells) ([6]; 24 h) | Cell viability percentage ([5]; K562, MTT, 72 h, 0.05 μM) | Cell viability percentage ([5]; K562, MTT, 72 h, 0.1 μM) | Cell viability percentage ([5]; K562, MTT, 72 h, 0.25 μM) | Cell viability percentage ([5]; K562, MTT, 72 h, 0.5 μM) | Cell viability percentage ([5]; K562, MTT, 72 h, 1.0 μM) | Cell viability percentage ([5]; K562, MTT, 72 h, 1.5 μM) | Cell viability percentage ([5]; K562, MTT, 72 h, 2.0 μM) | Cell viability percentage ([5]; K562, MTT, 72 h, 2.5 μM) | Cell viability percentage ([5]; K562, MTT, 72 h, 3.0 μM) | Cell viability percentage ([5]; K562, MTT, 72 h, 4.0 μM) | Cell viability percentage ([5]; K562, MTT, 72 h, 5.0 μM) | induction of cell death (annexin-positive and annexin/PI-positive cells) [7] | also measured |
| --- | --- | --- | --- | --- | --- | --- | --- | --- | --- | --- | --- | --- | --- | --- | --- | --- |
| Cc1ccc(NC(=O)c2ccc(CN3CCN(C)CC3)cc2)cc1Nc1nccc(-c2cccnc2)n1 [Imatinib, imatinib, reference compound] | about 10% |  |  |  |  |  |  |  |  |  |  |  |  |  |  | concentration from which viability reduction reached a plateau ([1]; Lucena): 1.5 µM; DNA fragmentation [2]: induced DNA fragmentation; cytotoxicity at 0.25 µM [3]: ~60%; patients reaching hematological remission [4]: ~100%; viability at 0.05 µM [5, 9]: 93.5%; viability at 0.1 µM [5, 9]: 63.4%; viability at 0.25 µM [5, 9]: 54.5%; viability at 0.5 µM [5, 9]: 20.1%; viability at 1 µM [5, 9]: 16.3%; viability at 1.5 µM [5, 9]: 14.3%; viability at 2 µM [5, 9]: 19.8%; viability at 2.5 µM [5, 9]: 19.4%; viability at 3 µM [5, 9]: 14.8%; viability at 4 µM [5, 9]: 13.5%; viability at 5 µM [5, 9]: 15% |
| C[C@H]1[C@@H](OC(=O)CCC(=O)O)O[C@@H]2O[C@@]3(C)CC[C@H]4[C@H](C)CC[C@@H]1[C@@]24OO3.Cc1ccc(N)cc1Nc1nccc(-c2cccnc2)n1 [Compound 04, 4-methyl-3-((4-(pyridin-3-yl)pyrimidin-2-yl)amino)benzenaminium-4-oxo-4-(((3R,5aS,6R,8aS,9R,10R,12R,12aR)-3,6,9-trimethyldecahydro-3H-3,12-epoxy[1,2]dioxepin[4,3-yl]isochromen-10-yl)oxy)butanoate] |  | more effective in the Lucena lineage; also recorded: greater percentage of reduction of cell viability than the K562 lineage | induced cell death, probably by apoptosis | 97.54% | 86.68% | 87.20% | 79.53% | 85.68% | 69.52% | 56.13% | 53.28% | 48.95% | 48.17% | 47.69% | induced cell death, probably by apoptosis | alterations in the cell cycle [2]: did not foster alterations in the cell cycle; cell death rate compared with imatinib ([6]; Lucena lineage): higher; reduction of viability ([5]; K562, MTT, 72 h, 2.5 μM): 50% |
| C[C@H]1[C@@H](OC(=O)CCC(=O)O)O[C@@H]2O[C@@]3(C)CC[C@H]4[C@H](C)CC[C@@H]1[C@@]24OO3.Cc1ccc(NC(=O)c2ccc(CN3CCN(C)CC3)cc2)cc1Nc1nccc(-c2cccnc2)n1 [Compound 03, N-(2-methyl-5-(4-((4-methylpiperazine-1-yl)methyl)benzamide)phenyl)-4-(pyridin-3-yl)pyrimidin-2-aminium-4-oxo-4-(((3R,5aS,6R,8aS,9R,10R,12R,12aR)-3,6,9-trimethyldecahydro-3H-3, 12-epoxy[1,2]dioxepin[4,3-yl]isochromen-10-yl)oxy)butanoate] | about 10% | reduced the viability in the two lineages in a similar way | induced cell death, probably by apoptosis | 77.68% | 82.43% | 43.45% | 20.16% | 18.11% | 16.73% | 15.12% | 17.89% | 16.69% | 16.51% | 15.76% | induced cell death, probably by apoptosis | cell death rate in Lucena compared with K562 ([6]; 24 h): greater cell death rate than the K562 lineage; reduction in cell viability ([5]; K562, MTT, 72 h, 0.25 μM): about 50%; DNA fragmentation [8]: induced DNA fragmentation |
